Test results published in patent publication US6355799B1, “Substituted benzene compounds, process for their preparation, and herbicidal and defoliant compositions containing them” (ISK Americas Incorporated, priority 1997, dated 2002).

Assays:
Type in all cases: in vivo
[1] = system: field corn (Zea mays L., var. Dekalb 535, CORN); assay: Pre-emerge test, crop safety; conditions: rated 14 days after application, 0 = no damage, 100 = complete death
In short: (§1)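 Fourteen days after spraying, crop and weed injury was graded visually from 0, no effect, to 100, every plant dead. Test substances were dissolved in acetone and applied at 15–1000 g ai/ha with a flat-fan nozzle. Application was either pre-emergence, one day after sowing, or post-emergence at the 2–3 leaf stage.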

[2] = system: upland rice (Oryza sp., var. Tebonnet, RICE); assay: Pre-emerge test, crop safety; conditions: rated 14 days after application, 0 = no damage, 100 = complete death
In short: as §1

[3] = system: velvetleaf (Abutilon theophrasti, ABUTH); assay: Pre-emerge test, greenhouse herbicide activity screening; conditions: rated 14 days after application, 0 = no damage, 100 = complete death
In short: as §1

[4] = system: ivyleaf morningglory (Ipomoea hederacea, IPOHE); assay: as above; conditions: rated 14 days after application, 0 = no damage, 100 = complete death
In short: as §1

[5] = system: common ragweed (Ambrosia artemisizfolia L., AMBEL); assay: as above; conditions: rated 14 days after application, 0 = no damage, 100 = complete death
In short: as §1

[6] = system: johnsongrass (Sorghum halepense, SORHA); assay: as above; conditions: rated 14 days after application, 0 = no damage, 100 = complete death
In short: as §1

[7] = system: lambsquarters (Chenopodium album, CHEAL); assay: as above; conditions: rated 14 days after application, 0 = no damage, 100 = complete death
In short: as §1

[8] = system: large crabgrass (Digitaria sanguinalis, DIGSA); assay: as above; conditions: rated 14 days after application, 0 = no damage, 100 = complete death
In short: as §1

[9] = system: sicklepod (Cassia obtusifolia, CASOB); assay: as above; conditions: rated 14 days after application, 0 = no damage, 100 = complete death
In short: as §1

[10] = system: barnyardgrass (Echinochloa crus-galli, ECHCG); assay: as above; conditions: rated 14 days after application, 0 = no damage, 100 = complete death
In short: as §1

[11] = system: green foxtail (Setaria viridis, SETVI); assay: as above; conditions: rated 14 days after application, 0 = no damage, 100 = complete death
In short: as §1

[12] = system: redroot pigweed (Amaranthus retroflexus, AMARE); assay: as above; conditions: rated 14 days after application, 0 = no damage, 100 = complete death
In short: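 Sandy loam pots; pre-emerge: sown 1 d pre-spray, surface-watered after, then bottom-watered. Post-emerge: sown 8–21 d before, 2–3 leaf stage, + 0.25% v/v NIS, bottom-watered. Acetone, 187 l/ha track spray, 15–1000 g ai/ha. 0–100 injury score, day 14.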

[13] = system: velvetleaf (Abutilon theophrasti, ABUTH); assay: Post-emerge test, greenhouse herbicide activity screening; conditions: post-emerge, 14 days after application, rating scale 0-100
In short: (§2)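 Rating: 0–100 visual injury, 14 DAA. Application: acetone, 187 l/ha, 15–1000 g ai/ha, flat-fan track sprayer with nozzle 40–45 cm above soil or canopy. Post-emerge runs used 0.25% v/v surfactant on 2–3 leaf plants.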

[14] = system: ivyleaf morningglory (Ipomoea hederacea, IPOHE); assay: as above; conditions: post-emerge, 14 days after application, rating scale 0-100
In short: as §2

[15] = system: redroot pigweed (Amaranthus retroflexus, AMARE); assay: as above; conditions: post-emerge, 14 days after application, rating scale 0-100
In short: as §2

[16] = system: common ragweed (Ambrosia artemisizfolia L., AMBEL); assay: as above; conditions: post-emerge, 14 days after application, rating scale 0-100
In short: as §2

[17] = system: johnsongrass (Sorghum halepense, SORHA); assay: as above; conditions: post-emerge, 14 days after application, rating scale 0-100
In short: as §2

[18] = system: lambsquarters (Chenopodium album, CHEAL); assay: as above; conditions: post-emerge, 14 days after application, rating scale 0-100
In short: as §2

[19] = system: large crabgrass (Digitaria sanguinalis, DIGSA); assay: as above; conditions: post-emerge, 14 days after application, rating scale 0-100
In short: as §2

[20] = system: sicklepod (Cassia obtusifolia, CASOB); assay: as above; conditions: post-emerge, 14 days after application, rating scale 0-100
In short: as §2

[21] = system: barnyardgrass (Echinochloa crus-galli, ECHCG); assay: as above; conditions: post-emerge, 14 days after application, rating scale 0-100
In short: as §2

[22] = system: green foxtail (Setaria viridis, SETVI); assay: as above; conditions: post-emerge, 14 days after application, rating scale 0-100
In short: as §2

[23] = system: field corn (Zea mays L., var. Dekalb 535, CORN); assay: Post-emerge test, crop safety; conditions: post-emerge, 14 days after application, rating scale 0-100
In short: as §1

[24] = system: upland rice (Oryza sp., var. Tebonnet, RICE); assay: Post-emerge test, crop safety; conditions: post-emerge, 14 days after application, rating scale 0-100
In short: as §1

SMILES: COc1c(Cl)cc(F)c(-n2c(=O)cc(C(F)(F)F)n(C)c2=O)c1NC(=O)c1ccc(F)c(F)c1 [2-48]
- Pre-emerge phytotoxicity rating (0-100), crop damage, CORN ([1]; 63 g ai/ha): 90
- Pre-emerge phytotoxicity rating (0-100), crop damage, CORN ([1]; 250 g ai/ha): 99
- Pre-emerge phytotoxicity rating (0-100), crop damage, RICE ([2]; 63 g ai/ha): 90
- Pre-emerge phytotoxicity rating (0-100), crop damage, RICE ([2]; 250 g ai/ha): 99
- Pre-emerge Herbicidal Activity, phytotoxicity rating (0-100), ABUTH ([3]; 63 g ai/ha): 100
- Pre-emerge Herbicidal Activity, phytotoxicity rating (0-100), ABUTH ([3]; 250 g ai/ha): 100
- Pre-emerge Herbicidal Activity, phytotoxicity rating (0-100), IPOHE ([4]; 63 g ai/ha): 100
- Pre-emerge Herbicidal Activity, phytotoxicity rating (0-100), IPOHE ([4]; 250 g ai/ha): 100
- Pre-emerge Herbicidal Activity, phytotoxicity rating (0-100), AMBEL ([5]; 63 g ai/ha): 100
- Pre-emerge Herbicidal Activity, phytotoxicity rating (0-100), AMBEL ([5]; 250 g ai/ha): 100
- Pre-emerge Herbicidal Activity, phytotoxicity rating (0-100), SORHA ([6]; 63 g ai/ha): 95
- Pre-emerge Herbicidal Activity, phytotoxicity rating (0-100), SORHA ([6]; 250 g ai/ha): 95
- Pre-emerge Herbicidal Activity, phytotoxicity rating (0-100), CHEAL ([7]; 63 g ai/ha): 100
- Pre-emerge Herbicidal Activity, phytotoxicity rating (0-100), CHEAL ([7]; 250 g ai/ha): 100
- Pre-emerge Herbicidal Activity, phytotoxicity rating (0-100), DIGSA ([8]; 63 g ai/ha): 95
- Pre-emerge Herbicidal Activity, phytotoxicity rating (0-100), DIGSA ([8]; 250 g ai/ha): 100
- Pre-emerge Herbicidal Activity, phytotoxicity rating (0-100), CASOB ([9]; 63 g ai/ha): 100
- Pre-emerge Herbicidal Activity, phytotoxicity rating (0-100), CASOB ([9]; 250 g ai/ha): 100
- Pre-emerge Herbicidal Activity, phytotoxicity rating (0-100), ECHCG ([10]; 63 g ai/ha): 85
- Pre-emerge Herbicidal Activity, phytotoxicity rating (0-100), ECHCG ([10]; 250 g ai/ha): 100
- Pre-emerge Herbicidal Activity, phytotoxicity rating (0-100), SETVI ([11]; 63 g ai/ha): 100
- Pre-emerge Herbicidal Activity, phytotoxicity rating (0-100), SETVI ([11]; 250 g ai/ha): 100
- Pre-emerge Herbicidal Activity, phytotoxicity rating (0-100), AMARE ([12]; 63 g ai/ha): 100
- Pre-emerge Herbicidal Activity, phytotoxicity rating (0-100), AMARE ([12]; 250 g ai/ha): 100
- phytotoxicity rating ABUTH ([13]; 63 g ai/ha): 100
- phytotoxicity rating ABUTH ([13]; 250 g ai/ha): 100
- phytotoxicity rating IPOHE ([14]; 63 g ai/ha): 100
- phytotoxicity rating IPOHE ([14]; 250 g ai/ha): 100
- phytotoxicity rating AMARE ([15]; 63 g ai/ha): 95
- phytotoxicity rating AMARE ([15]; 250 g ai/ha): 100
- phytotoxicity rating AMBEL ([16]; 63 g ai/ha): 85
- phytotoxicity rating AMBEL ([16]; 250 g ai/ha): 100
- phytotoxicity rating SORHA ([17]; 63 g ai/ha): 30
- phytotoxicity rating SORHA ([17]; 250 g ai/ha): 60
- phytotoxicity rating CHEAL ([18]; 63 g ai/ha): 95
- phytotoxicity rating CHEAL ([18]; 250 g ai/ha): 100
- phytotoxicity rating DIGSA ([19]; 63 g ai/ha): 0
- phytotoxicity rating DIGSA ([19]; 250 g ai/ha): 20
- phytotoxicity rating CASOB ([20]; 63 g ai/ha): 50
- phytotoxicity rating CASOB ([20]; 250 g ai/ha): 100
- phytotoxicity rating ECHCG ([21]; 63 g ai/ha): 0
- phytotoxicity rating ECHCG ([21]; 250 g ai/ha): 80
- phytotoxicity rating SETVI ([22]; 63 g ai/ha): 20
- phytotoxicity rating SETVI ([22]; 250 g ai/ha): 70
- phytotoxicity rating CORN ([23]; 63 g ai/ha): 50
- phytotoxicity rating CORN ([23]; 250 g ai/ha): 70
- phytotoxicity rating RICE ([24]; 63 g ai/ha): 80
- phytotoxicity rating RICE ([24]; 250 g ai/ha): 86
